# From ChEMBL document CHEMBL4118143, “Discovery of dimethyl pent-4-ynoic acid derivatives, as potent and orally bioavailable DGAT1 inhibitors that suppress body weight in diet-induced mouse obesity model” (Bioorg Med Chem Lett, 2018)
# Activity calls are given as the source filed them. The calls are words filed in the database; no cut-off is given here.
# Key:
# [1] = AUC in CD1 mouse at 10 mg/kg, po; assay type: ADME, organism-based; details: in vivo
# [2] = Cmax in Sprague-Dawley rat at 10 mg/kg, po; assay type: ADME, organism-based; design: dose 10 mg/kg, route oral; details: in vivo
# [3] = Oral bioavailability in Sprague-Dawley rat at 10 mg/kg; assay type: ADME, organism-based; details: in vivo
# Cytochrome P450 2D6 = Cytochrome P450 2D6 (Homo sapiens, UniProt P10635); assay: Inhibition of CYP2D6 (unknown origin); assay type: ADME
# Cytochrome P450 2C19 = Cytochrome P450 2C19 (Homo sapiens, UniProt P33261); assay: Inhibition of CYP2C19 (unknown origin); assay type: ADME
# [4] = target: T1, Diacylglycerol O-acyltransferase 1 (Homo sapiens, UniProt O75907); assay: Inhibition of human DGAT1 expressed in insect cell membranes using diacylglycerol/[14C]-oleoyl-CoA as substrate preincubated for 10 mins followed by [14C]-oleoyl-CoA addition measured after 15 mins by scintillation counting method
# T1 sequence (O75907 whole entry): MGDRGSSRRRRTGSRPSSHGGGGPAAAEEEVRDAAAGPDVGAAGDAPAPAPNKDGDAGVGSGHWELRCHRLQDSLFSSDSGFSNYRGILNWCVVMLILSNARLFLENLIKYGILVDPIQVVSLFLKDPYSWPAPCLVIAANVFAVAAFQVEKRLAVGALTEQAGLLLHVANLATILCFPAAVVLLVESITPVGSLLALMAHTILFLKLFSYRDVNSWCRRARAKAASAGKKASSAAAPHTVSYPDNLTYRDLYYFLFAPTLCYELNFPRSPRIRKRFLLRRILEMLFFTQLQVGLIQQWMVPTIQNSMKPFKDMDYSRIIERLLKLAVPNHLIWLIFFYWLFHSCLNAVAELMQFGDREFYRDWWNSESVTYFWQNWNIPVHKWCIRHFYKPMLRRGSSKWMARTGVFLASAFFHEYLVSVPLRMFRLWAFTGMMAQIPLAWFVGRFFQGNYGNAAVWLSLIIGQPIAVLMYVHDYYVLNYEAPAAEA
# [5] = Intrinsic clearance in mouse liver microsomes; assay type: ADME, microsome; details: read-out: CLH
# [6] = target: T2, Diacylglycerol O-acyltransferase 2 (Homo sapiens, UniProt Q96PD7); assay: Inhibition of human DGAT2 expressed in insect cell membranes using diacylglycerol/[14C]-oleoyl-CoA as substrate preincubated for 10 mins followed by [14C]-oleoyl-CoA addition measured after 15 mins by scintillation counting method
# T2 sequence (Q96PD7 whole entry): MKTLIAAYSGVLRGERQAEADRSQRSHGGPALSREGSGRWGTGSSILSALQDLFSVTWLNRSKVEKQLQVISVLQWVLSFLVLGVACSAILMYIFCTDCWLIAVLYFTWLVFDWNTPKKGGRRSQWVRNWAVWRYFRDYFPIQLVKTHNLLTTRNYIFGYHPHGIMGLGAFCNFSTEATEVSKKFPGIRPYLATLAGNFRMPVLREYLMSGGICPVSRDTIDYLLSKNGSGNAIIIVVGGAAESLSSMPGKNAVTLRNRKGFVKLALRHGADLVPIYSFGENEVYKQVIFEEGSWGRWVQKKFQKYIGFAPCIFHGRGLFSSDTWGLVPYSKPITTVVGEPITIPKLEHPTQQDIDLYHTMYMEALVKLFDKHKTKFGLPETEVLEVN
# [7] = Volume of distribution at steady state in Sprague-Dawley rat at 0.5 mg/kg, iv; assay type: ADME, organism-based; details: in vivo, read-out: Vdss
# [8] = Cmax in CD1 mouse at 10 mg/kg, po; assay type: ADME, organism-based; design: dose 10 mg/kg, route oral; details: in vivo
# Cytochrome P450 2C9 = Cytochrome P450 2C9 (Homo sapiens, UniProt P11712); assay: Inhibition of CYP2C9 (unknown origin); assay type: ADME
# [9] = Clearance in Sprague-Dawley rat at 0.5 mg/kg, iv; assay type: ADME, organism-based; details: in vivo
# [10] = Metabolic stability in mouse liver microsomes assessed as parent compound remaining measured at 60 mins; assay type: ADME, microsome; details: read-out: Stability
# Mus musculus [11] = assay: Hepatotoxicity in diet-induced obesity C57BL/6 mouse model at 10 mg/kg administered via oral gavage as bid for 7 days; assay type: toxicity, organism-based; details: in vivo, 168 h
# [12] = Intrinsic clearance in human liver microsomes; assay type: ADME, microsome; details: read-out: CLH
# Cytochrome P450 3A4 = Cytochrome P450 3A4 (Homo sapiens, UniProt P08684); assay: Inhibition of CYP3A4 (unknown origin); assay type: ADME
# [13] = Tmax in CD1 mouse at 10 mg/kg, po; assay type: ADME, organism-based; details: in vivo
# Mus musculus [14] = assay: Inhibition of corn oil-induced plasma triacylglycerol excursion in CD1 mouse at 0.3 to 1 mg/kg administered via oral gavage 30 mins prior to corn oil challenge measured at 2 hrs by lipid tolerance test; assay type: functional, organism-based
# [15] = Solubility of the compound at pH 7.4; assay type: physicochemical; details: buffer
# [16] = Volume of distribution at steady state in CD1 mouse at 0.5 mg/kg, iv; assay type: ADME, organism-based; details: in vivo, read-out: Vdss
# [17] = AUC in Sprague-Dawley rat at 10 mg/kg, po; assay type: ADME, organism-based; details: in vivo
# Mus musculus [18] = assay: Antiobesity activity in diet-induced obesity C57BL/6 mouse model assessed as reduction in body weight at 10 mg/kg administered via oral gavage as bid for 7 days; assay type: functional, organism-based
# [19] = Clearance in CD1 mouse at 0.5 mg/kg, iv; assay type: ADME, organism-based; details: in vivo
# [20] = Tmax in Sprague-Dawley rat at 10 mg/kg, po; assay type: ADME, organism-based; details: in vivo
# Mus musculus [21] = assay: Antiobesity activity in diet-induced obesity C57BL/6 mouse model assessed as reduction in cumulative food intake at 10 mg/kg administered via oral gavage as bid for 7 days relative to vehicle-treated control; assay type: functional; design: scale not given: the % may be the effect or the level left
# [22] = Oral bioavailability in CD1 mouse at 10 mg/kg; assay type: ADME, organism-based; details: in vivo
# [23] = Protein binding in human plasma; assay type: ADME, cell-free; details: read-out: PPB (converted)
# [24] = target: T1, Diacylglycerol O-acyltransferase 1; assay: Inhibition of DGAT1 in human HEK293 cells using [13C18]oleic acid as substrate assessed as decrease in triacylglycerol synthesis preincubated for 15 mins followed by [13C18]oleic acid addition measured after 2 hrs by LC/MS/MS analysis; assay type: cell-based
# Cytochrome P450 1A2 = target: T3, Cytochrome P450 1A2 (Homo sapiens, UniProt P05177); assay: Inhibition of CYP1A2 (unknown origin); assay type: ADME
# T3 sequence (P05177 whole entry): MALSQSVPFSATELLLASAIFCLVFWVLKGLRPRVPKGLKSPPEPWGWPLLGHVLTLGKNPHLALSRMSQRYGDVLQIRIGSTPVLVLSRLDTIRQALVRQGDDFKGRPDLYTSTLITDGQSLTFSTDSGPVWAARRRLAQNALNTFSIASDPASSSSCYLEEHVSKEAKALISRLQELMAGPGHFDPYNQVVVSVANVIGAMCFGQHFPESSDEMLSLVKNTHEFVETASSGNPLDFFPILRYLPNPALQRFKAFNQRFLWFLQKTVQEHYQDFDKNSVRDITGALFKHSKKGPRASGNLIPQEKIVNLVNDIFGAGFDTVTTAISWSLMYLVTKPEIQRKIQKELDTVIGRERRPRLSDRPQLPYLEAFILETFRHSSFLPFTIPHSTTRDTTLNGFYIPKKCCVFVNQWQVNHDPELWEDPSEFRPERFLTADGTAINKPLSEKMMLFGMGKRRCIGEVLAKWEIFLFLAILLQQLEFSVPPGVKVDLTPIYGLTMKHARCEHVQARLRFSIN
# [25] = Metabolic stability in human liver microsomes assessed as parent compound remaining measured at 60 mins; assay type: ADME, microsome; details: read-out: Stability
# [26] = target: T4, Diacylglycerol O-acyltransferase 1 (Mus musculus, UniProt Q9Z2A7); assay: Inhibition of mouse DGAT1 expressed in insect cell membranes using diacylglycerol/[14C]-oleoyl-CoA as substrate preincubated for 10 mins followed by [14C]-oleoyl-CoA addition measured after 15 mins by scintillation counting method
# T4 sequence (Q9Z2A7 whole entry): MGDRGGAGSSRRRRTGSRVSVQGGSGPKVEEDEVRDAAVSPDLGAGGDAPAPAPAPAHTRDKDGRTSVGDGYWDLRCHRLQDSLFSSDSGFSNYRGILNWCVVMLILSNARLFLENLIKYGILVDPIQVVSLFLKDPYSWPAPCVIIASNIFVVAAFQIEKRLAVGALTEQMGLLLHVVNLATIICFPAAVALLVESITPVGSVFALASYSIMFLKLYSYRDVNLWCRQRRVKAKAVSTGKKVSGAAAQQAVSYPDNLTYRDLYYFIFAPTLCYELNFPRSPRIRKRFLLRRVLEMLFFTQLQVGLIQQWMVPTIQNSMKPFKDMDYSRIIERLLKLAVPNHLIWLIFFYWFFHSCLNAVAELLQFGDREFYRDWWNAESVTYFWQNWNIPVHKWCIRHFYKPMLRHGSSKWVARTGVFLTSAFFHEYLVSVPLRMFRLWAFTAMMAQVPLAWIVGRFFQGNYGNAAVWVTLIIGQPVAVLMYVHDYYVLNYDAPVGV
# Chain of Cytochrome P450 2D6 (P10635 whole entry): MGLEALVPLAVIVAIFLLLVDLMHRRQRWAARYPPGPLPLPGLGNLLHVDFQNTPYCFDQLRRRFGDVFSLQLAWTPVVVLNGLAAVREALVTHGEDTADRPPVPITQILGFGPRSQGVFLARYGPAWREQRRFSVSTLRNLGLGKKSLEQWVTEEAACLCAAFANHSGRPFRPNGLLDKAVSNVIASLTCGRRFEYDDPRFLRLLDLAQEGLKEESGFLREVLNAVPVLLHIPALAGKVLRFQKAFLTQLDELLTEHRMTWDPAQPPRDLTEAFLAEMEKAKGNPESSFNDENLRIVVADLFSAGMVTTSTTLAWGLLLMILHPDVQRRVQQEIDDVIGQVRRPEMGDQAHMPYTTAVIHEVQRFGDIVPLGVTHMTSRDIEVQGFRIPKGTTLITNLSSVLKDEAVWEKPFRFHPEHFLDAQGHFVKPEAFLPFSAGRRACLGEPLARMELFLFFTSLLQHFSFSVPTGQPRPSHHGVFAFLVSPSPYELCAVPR
# Chain of Cytochrome P450 2C19 (P33261 whole entry): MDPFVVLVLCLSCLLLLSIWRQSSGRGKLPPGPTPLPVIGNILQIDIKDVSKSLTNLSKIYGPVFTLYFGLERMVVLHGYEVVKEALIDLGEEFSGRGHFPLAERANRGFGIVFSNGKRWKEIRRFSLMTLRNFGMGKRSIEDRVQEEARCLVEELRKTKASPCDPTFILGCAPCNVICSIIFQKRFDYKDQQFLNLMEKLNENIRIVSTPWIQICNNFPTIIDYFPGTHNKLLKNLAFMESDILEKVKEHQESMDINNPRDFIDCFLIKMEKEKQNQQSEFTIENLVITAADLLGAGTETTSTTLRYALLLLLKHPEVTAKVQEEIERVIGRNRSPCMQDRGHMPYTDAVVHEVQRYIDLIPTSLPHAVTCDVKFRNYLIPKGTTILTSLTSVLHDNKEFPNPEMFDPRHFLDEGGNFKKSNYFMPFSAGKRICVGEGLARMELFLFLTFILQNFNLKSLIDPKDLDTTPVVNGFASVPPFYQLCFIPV
# Chain of Cytochrome P450 2C9 (P11712 whole entry): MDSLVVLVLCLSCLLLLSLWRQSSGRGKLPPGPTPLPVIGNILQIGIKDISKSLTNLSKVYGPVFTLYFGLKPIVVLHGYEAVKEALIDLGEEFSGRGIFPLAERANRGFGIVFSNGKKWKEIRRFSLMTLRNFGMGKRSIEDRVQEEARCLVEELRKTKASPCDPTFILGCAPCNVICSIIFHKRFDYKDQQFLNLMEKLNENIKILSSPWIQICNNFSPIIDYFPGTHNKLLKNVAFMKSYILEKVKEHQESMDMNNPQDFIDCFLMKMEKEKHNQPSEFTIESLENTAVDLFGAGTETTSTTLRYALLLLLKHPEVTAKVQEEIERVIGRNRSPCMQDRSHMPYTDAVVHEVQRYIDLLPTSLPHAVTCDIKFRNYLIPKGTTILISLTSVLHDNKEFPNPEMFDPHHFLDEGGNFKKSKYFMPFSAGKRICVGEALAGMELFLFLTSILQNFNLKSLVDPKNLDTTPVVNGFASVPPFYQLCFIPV
# Chain of Cytochrome P450 3A4 (P08684 whole entry): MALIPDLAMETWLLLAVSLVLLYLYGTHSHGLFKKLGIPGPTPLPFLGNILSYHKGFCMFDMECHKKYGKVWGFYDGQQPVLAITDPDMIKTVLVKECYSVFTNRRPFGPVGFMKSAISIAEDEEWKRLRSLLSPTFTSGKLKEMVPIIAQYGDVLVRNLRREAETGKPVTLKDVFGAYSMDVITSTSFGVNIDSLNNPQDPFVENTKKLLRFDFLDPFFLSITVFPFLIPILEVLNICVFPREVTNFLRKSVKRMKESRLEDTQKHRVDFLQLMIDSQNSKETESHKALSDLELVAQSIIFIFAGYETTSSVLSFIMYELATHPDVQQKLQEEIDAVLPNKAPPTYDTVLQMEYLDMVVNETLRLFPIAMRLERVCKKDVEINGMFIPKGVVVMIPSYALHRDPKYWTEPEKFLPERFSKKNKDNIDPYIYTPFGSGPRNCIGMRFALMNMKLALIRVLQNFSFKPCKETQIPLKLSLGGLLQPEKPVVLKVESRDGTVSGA
smiles,measurement,setting,value
Cc1cc(N2CCOc3ncnc(N)c3C2=O)cc(C)c1C#CC(C)(C)CC(=O)O,AUC,[1],1250 ng·h/mL
same,Cmax,[2],8700 ng/mL
same,bioavailability,[3],70%
same,IC50,Cytochrome P450 2D6,27200 nM
same,IC50,Cytochrome P450 2C19,29700 nM
same,IC50,[4],21 to 28 nM
same,CLint scaled,[5],< 38 mL/min/kg
same,IC50,[6],> 50000 nM
same,Vd,[7],1.12 L/kg
same,Cmax,[8],521 ng/mL
same,IC50,Cytochrome P450 2C9,> 100000 nM
same,clearance,[9],4.76 mL/min/kg
same,remaining at 1 h,[10],97.9%
same,Activity,Mus musculus [11],Non-Toxic
same,CLint scaled,[12],< 9.5 mL/min/kg
same,IC50,Cytochrome P450 3A4,45500 nM
same,Tmax,[13],30 min
same,inhibition,Mus musculus [14],Active
same,solubility,[15],110 µM
same,Vd,[16],2.44 L/kg
same,AUC,[17],21000 ng·h/mL
same,Activity,Mus musculus [18],Active
same,clearance,[19],39.3 mL/min/kg
same,Tmax,[20],30 min
same,Activity,Mus musculus [21],11%
same,bioavailability,[22],31%
same,fraction unbound,[23],0.139
same,EC50,[24],26 nM
same,IC50,Cytochrome P450 1A2,27600 nM
same,remaining at 1 h,[25],97.6%
same,IC50,[26],12 nM
CC(C)(C#Cc1ccc(N2CCOc3ncnc(N)c3C2=O)cc1OC(F)(F)F)CC(=O)O,IC50,[26],92 nM
CC(C)(C#Cc1ccc(N2CCOc3ncnc(N)c3C2=O)cc1)CC(=O)O,Cmax,[2],2160 ng/mL
same,bioavailability,[3],42%
same,Vd,[7],1.06 L/kg
same,clearance,[9],14.8 mL/min/kg
same,AUC,[17],4100 ng·h/mL
same,Tmax,[20],30 min
CC(C)(C#Cc1c(Cl)cc(N2CCOc3ncnc(N)c3C2=O)cc1Cl)CC(=O)O,IC50,[26],10 nM
CCc1cc(N2CCOc3ncnc(N)c3C2=O)cc(C)c1C#CC(C)(C)CC(=O)O,IC50,[26],12 nM
CC(C)(C#Cc1ccc(N2CCOc3ncnc(N)c3C2=O)cc1F)CC(=O)O,IC50,[26],58 nM
CC(C)(C#Cc1ccc(N2CCOc3ncnc(N)c3C2=O)cc1Cl)CC(=O)O,IC50,[26],26 nM
Cc1cc(N2CCOc3ncnc(N)c3C2=O)cc(Cl)c1C#CC(C)(C)CC(=O)O,IC50,[26],14 nM
CC(C)(C#Cc1ccc(N2CCOc3ncnc(N)c3C2=O)cc1C(F)(F)F)CC(=O)O,IC50,[26],24 nM
CCc1cc(N2CCOc3ncnc(N)c3C2=O)ccc1C#CC(C)(C)CC(=O)O,IC50,[26],682 nM
CCc1cc(N2CCOc3ncnc(N)c3C2=O)cc(CC)c1C#CC(C)(C)CC(=O)O,IC50,[26],12 nM
COc1cc(N2CCOc3ncnc(N)c3C2=O)cc(C)c1C#CC(C)(C)CC(=O)O,IC50,[26],96 nM
COc1cc(N2CCOc3ncnc(N)c3C2=O)ccc1C#CC(C)(C)CC(=O)O,IC50,[26],728 nM
Cc1cc(C#CC(C)(C)CC(=O)O)ccc1N1CCOc2ncnc(N)c2C1=O,IC50,[26],3760 nM
Cc1cc(N2CCOc3ncnc(N)c3C2=O)cc(F)c1C#CC(C)(C)CC(=O)O,IC50,[26],11 nM
